How the values were obtained:
[1] = biological target: T1, Biotin-labeled amyloid-β (Homo sapiens, UniProt P05067); assay: Dose response assay, plate-coated test compounds at 6 concentrations vs biotin-labeled amyloid β; assay type: binding; details: biotin-labeled amyloid at 1 μM; compounds coated at 6 concentrations
Description: Step 1. Coating the plate. The four compounds 3a, 3b, 3c, and 3d were diluted to 6 different concentrations in the same coating buffer used in the ELISA. The resulting solutions were applied to individual wells of a 96-well polystyrene microtiter plate at 100 μL/well. The plate was then sealed and allowed to incubate at 4° C. for at least 8 hours.
Step 2. Washing the plate. The sample solutions were then removed and the plate was washed twice with 300 μL/well of the same washing solution used in the ELISA.
Step 3. Blocking. The blocking buffer used in the ELISA was added at a volume of 150 μL/well, and the plate was incubated at room temperature for 2 hours.
Step 4. Sampling. The blocking buffer was removed and biotin-labeled amyloid P was added to each well at a concentration of 1 μM in the same binding buffer used in the ELISA. The solution in each well was then mixed by being drawn into and ejected from a pipette 15 times. The plate was then gently agitated for further mixing. After mixing, the plate was covered and incubated at room temperature overnight.
Step 5. Washing. The solution in each well was discarded and the plate was washed three times with 170 μL/well of the washing solution described above.
Step 6. Binding with avidin-HRP and substrate. NeutrAvidinHRP solution was added to each well at 0.01 μg/well. The wells were then covered and incubated at room temperature for 30 minutes. The solution in each well was discarded and the plate was washed 3 times with the above-referenced washing solution at 170 μL/well of washing solution. The chemiluminescent substrate solution of the ELISA was then added at 100 μL/well, and luminescence was read using the Wallac Victor 1420 Multilabel Counter.
Step 7. Reading and calculations. Values for average luminescence vs. concentration were developed in the same manner as in the ELISA. From these values were determined EC50 values for each of the four test compounds as β-amyloid-binding portion candidates.

[2] = biological target: T1, Biotin-labeled amyloid-β; assay: ELISA assay, binding of biotin-labeled amyloid-β to plate-coated test compounds; details: compound coated at 1 μM
Description: Step 1. Sample Solution Preparations. For each test compound, four samples and two standard solutions using Thioflavin-T as the standard were prepared in a coating buffer, each to a final concentration of 1 μM. The coating buffer was 50 mM Tris (Trizma Base from Sigma Aldrich, Inc., St. […] Step 2. Coating the Plate. The sample solutions were applied to individual wells of a 96-well polystyrene microtiter plate at 100 μL/well. The plates were sealed and allowed to incubate at 4° C. for at least 8 hours. Step 3. Washing the Plate. The sample solutions were removed and the plate was washed two times with 300 μL/well of washing solution, which consisted of a 1 to 25 dilution in water of DELFIA® Wash Concentrate (PerkinElmer Life Sciences, Inc., Boston, Mass., USA). Step 4. Blocking. Blocking was achieved by adding 150 μL/well of a blocking buffer which consisted of a 1 to 20 dilution in water of Milk Diluent/Blocking Solution Concentrate (from KPL, Inc., Gaithersburg, Md., USA). The plate was then incubated at room temperature for 2 hours. Step 5. Sampling. Biotin-labeled amyloid-β was dissolved in a binding buffer to form a 1 μM solution of the amyloid-β. The binding buffer was a mixture of a coating buffer with the blocking buffer of Step 4 in a 90:10 ratio by volume. […] The dilutions were performed in quadruplicate, thus resulting in four sets of wells for each test compound. Step 6. Mixing. The solution in each well was mixed by being drawn into and ejected from a pipette 15 times. The plate was then gently agitated for further mixing. The plate was then covered and incubated at room temperature overnight. Step 7. Washing. The solution in each well was discarded and the plate was washed three times with 170 μL/well of the washing solution described above. Step 8. Binding with avidin-HRP. NeutrAvidinHRP solution was added to each well at 0.01 μg/well. The wells were then covered and incubated at room temperature for 30 minutes. Step 9. Substrate addition. The solution in each well was discarded and the plate was washed 3 times with the above-referenced washing solution at 170 μL/well of washing solution. A chemiluminescent substrate solution which was a mixture of equal volumes of LumiGLO Substrate A and LumiGLO Substrate B from KPL, Inc., was then added at 100 μL/well. Step 10. Fluorescence measurement and calculations. Luminescence was read on a Wallac Victor 1420 Multilabel Reader (PerkinElmer Life Sciences, Inc., Boston, Mass., USA). […] Average luminescence concentrations in counts per second (CPS) for each of the four β-amyloid-binding portion candidates at each dilution of the biotin-labeled β-amyloid are shown in Table I below.

[3] = biological target: T2, FKBP12 (Homo sapiens, UniProt P62942); assay: ELISA screening of candidates for the chaperone binding portion (FKBP12); details: for Average Luminescence Concentration (CPS): compound coated at 1 μM; for binding affinity to chaperone FKBP12, in words: comparison of the four isomers
T2 construct: His (6xHis); made in house; host or cells: E. coli BL21-AI
Description: The following four compounds, synthesized as described in, or in a manner analogous to the description in, Example 3, were tested for their suitability as candidates for the chaperone binding portion of the construct of this invention. The chaperone to which binding was evaluated was FKBP12 and, screening was performed by ELISA.
Step 1. Sample Solutions. Four samples of each of the test compounds were prepared by dissolving the compounds in the coating buffer described in Example 2 to a final concentration of 1 μM.
Step 2. Coating the Plate. The wells of a 96-well microtiter plate were coated with the sample solutions at 100 μL/well. The plates were then sealed and allowed to incubate at 4° C. for at least 8 hours.
Step 3. Washing the Plate. The coating solution was removed from the wells and the plate was washed two times with the washing solution of Example 2 at 300 μL/well.
Step 4. Blocking. The blocking buffer used in Example 2 was added at a volume of 150 μL/well, and the plate was incubated at room temperature for 2 hours.
Step 5. Sampling. Biotin-labeled FKBP12 was dissolved in a binding buffer to form a 1 μM solution. The binding buffer was a mixture of a coating buffer with the blocking buffer of Step 4 in a 90:10 ratio by volume. The coating buffer consisted of 50 mM Tris (Trizma Base from Sigma-Aldrich), 150 mM NaCl, 1 mM CaCl2, 1mM MgCl2, 1 mM MnCl2, pH=7.4 in redistilled water. Once blocking had been completed in Step 4, the blocking buffer was removed from each well, and the biotin-labeled […] solution was placed in one of the wells for each of the four test compounds, together with additional blocking buffer for a total volume of 125 μL in the well. Dilutions were then prepared to achieve final concentrations per well of […]. The dilutions were performed in quadruplicate, thus resulting in four sets of wells for each test compound. The procedures used for cloning, expression, and purification of FKBP12 are provided at the end of this example.
Step 6. Mixing. The solution in each well was mixed by being drawn into and ejected from a pipette 15 times. The plate was then gently agitated to achieve thorough mixing. After mixing, the plate was covered and incubated at room temperature overnight.
Step 7. Washing. The solution in each well was discarded and the plate was washed three times with 170 μL/well of the washing solution of Example 2.
Step 8. Binding with avidin-HRP. NeutrAvidinHRP solution was added to each well at 0.01 μg (100 μL)/well. The wells were then covered and incubated at room temperature for 30 minutes.
Step 9. Substrate addition. The solution in each well was discarded and the plate was washed 3 times with the above-referenced washing solution at 170 μL/well of washing solution. A chemiluminescent substrate solution was then added at 100 μL/well.
Step 10. Fluorescence measurement and calculations.

[4] = β-Amyloid Dilution 10 (μL/well)
[5] = β-Amyloid Dilution 20 (μL/well)
[6] = β-Amyloid Dilution 30 (μL/well)
[7] = β-Amyloid Dilution 40 (μL/well)
[8] = Concentration 1 (μM/well) biotin-labeled FKBP12
[9] = Concentration 5 (μM/well) biotin-labeled FKBP12
[10] = Concentration 10 (μM/well) biotin-labeled FKBP12
[11] = Concentration 20 (μM/well) biotin-labeled FKBP12
[12] = Concentration 30 (μM/well) biotin-labeled FKBP12
[13] = Concentration 40 (μM/well) biotin-labeled FKBP12

T2 sequence (P62942 whole entry): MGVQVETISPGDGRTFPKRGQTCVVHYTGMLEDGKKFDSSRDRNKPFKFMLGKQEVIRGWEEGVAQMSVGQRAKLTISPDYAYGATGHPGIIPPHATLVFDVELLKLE
T1 sequence (P05067 672-711 limits assumed): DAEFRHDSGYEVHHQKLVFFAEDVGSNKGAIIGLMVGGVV

NCCCCCNC(=O)c1ccccc1Nc1cccc(C(F)(F)F)c1 [3d]
EC50 [1]: 35.8 µM | Average Luminescence Concentration (CPS) ([2]; β-Amyloid Dilution 1 (μL/well)): 105 CPS | Average Luminescence Concentration (CPS) ([2]; β-Amyloid Dilution 5 (μL/well)): 220 CPS | Average Luminescence Concentration (CPS) [2, 4]: 678 CPS | Average Luminescence Concentration (CPS) [2, 5]: 1461 CPS | Average Luminescence Concentration (CPS) [2, 6]: 2662 CPS | Average Luminescence Concentration (CPS) [2, 7]: 2579 CPS

CCC(C)(C)C(=O)C(=O)N1CCCC[C@H]1C(=O)O[C@@H](CCc1ccc(OC)c(OC)c1)c1ccc(OCC(=O)O)cc1 [9-SS]
Average Luminescence Concentration (CPS) [3, 8]: 297 CPS | Average Luminescence Concentration (CPS) [3, 9]: 876 CPS | Average Luminescence Concentration (CPS) [3, 10]: 931 CPS | Average Luminescence Concentration (CPS) [3, 11]: 579 CPS | Average Luminescence Concentration (CPS) [3, 12]: 1366 CPS | Average Luminescence Concentration (CPS) [3, 13]: 1231 CPS | binding affinity to chaperone FKBP12, in words [3]: low or moderate binding affinity

NCCCNC(=O)c1ccccc1Nc1cccc(C(F)(F)F)c1 [3b]
EC50 [1]: 31.9 µM | Average Luminescence Concentration (CPS) ([2]; β-Amyloid Dilution 1 (μL/well)): 878 CPS | Average Luminescence Concentration (CPS) ([2]; β-Amyloid Dilution 5 (μL/well)): 1325 CPS | Average Luminescence Concentration (CPS) [2, 4]: 1694 CPS | Average Luminescence Concentration (CPS) [2, 5]: 2184 CPS | Average Luminescence Concentration (CPS) [2, 6]: 4629 CPS | Average Luminescence Concentration (CPS) [2, 7]: 4788 CPS

NCCCCNC(=O)c1ccccc1Nc1cccc(C(F)(F)F)c1 [3c]
EC50 [1]: 36.2 µM | Average Luminescence Concentration (CPS) ([2]; β-Amyloid Dilution 1 (μL/well)): 32 CPS | Average Luminescence Concentration (CPS) ([2]; β-Amyloid Dilution 5 (μL/well)): 74 CPS | Average Luminescence Concentration (CPS) [2, 4]: 3128 CPS | Average Luminescence Concentration (CPS) [2, 5]: 161 CPS | Average Luminescence Concentration (CPS) [2, 6]: 2968 CPS | Average Luminescence Concentration (CPS) [2, 7]: 3025 CPS

CCC(C)(C)C(=O)C(=O)N1CCCC[C@H]1C(=O)O[C@H](CCc1ccc(OC)c(OC)c1)c1ccc(OCC(=O)O)cc1 [9-RS, (1R)-1-[4-(carboxymethoxy)phenyl]-3-(3,4-dimethoxy-phenyl)-1-propanyl (2S)-1-(3,3-dimethyl-1,2-dioxopentyl)-2-piperidinecarboxylate]
Average Luminescence Concentration (CPS) [3, 8]: 1399 CPS | Average Luminescence Concentration (CPS) [3, 9]: 1688 CPS | Average Luminescence Concentration (CPS) [3, 10]: 1685 CPS | Average Luminescence Concentration (CPS) [3, 11]: 2006 CPS | Average Luminescence Concentration (CPS) [3, 12]: 4244 CPS | Average Luminescence Concentration (CPS) [3, 13]: 5509 CPS

CCC(C)(C)C(=O)C(=O)N1CCCC[C@H]1C(=O)O[C@@H](CCc1ccc(OC)c(OC)c1)c1ccc(OCC(=O)O)cc1 [9-SR]
Average Luminescence Concentration (CPS) [3, 8]: 762 CPS | Average Luminescence Concentration (CPS) [3, 9]: 1050 CPS | Average Luminescence Concentration (CPS) [3, 10]: 1218 CPS | Average Luminescence Concentration (CPS) [3, 11]: 1410 CPS | Average Luminescence Concentration (CPS) [3, 12]: 1478 CPS | Average Luminescence Concentration (CPS) [3, 13]: 1392 CPS

Cc1ccc2c(c1)sc(-c1ccc(N(C)C)cc1)[n+]2C.[Cl-] [Thioflavin-T, reference compound]
Average Luminescence Concentration (CPS) ([2]; β-Amyloid Dilution 1 (μL/well)): 940 CPS | Average Luminescence Concentration (CPS) ([2]; β-Amyloid Dilution 5 (μL/well)): 570 CPS | Average Luminescence Concentration (CPS) [2, 4]: 731 CPS | Average Luminescence Concentration (CPS) [2, 5]: 86 CPS | Average Luminescence Concentration (CPS) [2, 6]: 2311 CPS | Average Luminescence Concentration (CPS) [2, 7]: 5140 CPS

CCC(C)(C)C(=O)C(=O)N1CCCC[C@H]1C(=O)O[C@@H](CCc1ccc(OC)c(OC)c1)c1ccc(OCC(=O)O)cc1 [9-RR]
Average Luminescence Concentration (CPS) [3, 8]: 660 CPS | Average Luminescence Concentration (CPS) [3, 9]: 1158 CPS | Average Luminescence Concentration (CPS) [3, 10]: 769 CPS | Average Luminescence Concentration (CPS) [3, 11]: 371 CPS | Average Luminescence Concentration (CPS) [3, 12]: 1297 CPS | Average Luminescence Concentration (CPS) [3, 13]: 1138 CPS | binding affinity to chaperone FKBP12, in words [3]: low or moderate binding affinity

NCCNC(=O)c1ccccc1Nc1cccc(C(F)(F)F)c1 [3a, N-(2-amino-ethyl)-2-(3-trifluoromethyl-phenylamino)-benzamide]
EC50 [1]: 50.4 µM | Average Luminescence Concentration (CPS) ([2]; β-Amyloid Dilution 1 (μL/well)): 323 CPS | Average Luminescence Concentration (CPS) ([2]; β-Amyloid Dilution 5 (μL/well)): 816 CPS | Average Luminescence Concentration (CPS) [2, 4]: 1453 CPS | Average Luminescence Concentration (CPS) [2, 5]: 2072 CPS | Average Luminescence Concentration (CPS) [2, 6]: 3072 CPS | Average Luminescence Concentration (CPS) [2, 7]: 2986 CPS
